Data set [1] concerns hydrocodone-induced antinociception. Briefly: 55° C. warm-water tail-flick assay: inhibition of hydrocodone-induced antinociception. The data set is classed as in vivo, mice. For orientation: In hot-plate and tail-flick tests a longer latency is read as antinociception.
Data set [2] has as its system hydrocodone effects: GI transit (peripheral) vs. antinociception (central). Put plainly: Peripheral vs. central potency, (antinociception ID50)/(GI transit ID50). Type of data set: in vivo, mice. Conditions: for fold more potent peripherally than centrally: over all administration routes.
Data set [3] can be described thus: Neutral antagonist comparison (Table 3). Conditions: for Equivalent dose (as compared to 1.5 mg to 5 mg 6β-naltrexol): 70 kg subject; for potency, times less potent than 6β-naltrexol: stated as 'may be'/'probably'.
Data set [4] can be described thus: Oral bioavailability of the neutral antagonists.
The nature of data set [5]: Concentrations in plasma and brain tissue after i.p. injection (LC/MS/MS). The conditions noted are these: for change of levels at 60 min from those measured at 10 min: after i.p. injection; for concentration at 10 min / concentration at 60 min: mouse, 1 mg/kg.
In data set [6] the test system is hydrocodone induced GI inhibition. Put plainly: GI transit assay (charcoal meal): reversal of hydrocodone induced GI inhibition. Conditions: for induction of diarrhea: on administration of the antagonist.
For data set [7] the following is noted: po; cited from earlier work.
Data set [8] relates to opioid withdrawal in methadone-dependent subjects. Put plainly: Double-blind ascending dose study in methadone maintenance subjects: withdrawal scales, VAS, vital signs, pupillometry, tolerability.
For data set [9] the following is noted: humans; literature; cited from earlier work.
The mark [10] stands for this setting: 1 mg/kg i.p., 60 min after injection.
[11] abbreviates: 10 mg/kg i.p., 10 min after injection.
The mark [12] stands for this setting: 10 mg/kg i.p., 60 min after injection.
The mark [13] stands for this setting: antagonist i.v., hydrocodone A90 3.2 mg/kg i.v.
Where [14] appears, read: antagonist p.o., hydrocodone A90 3.2 mg/kg i.v.
The mark [15] stands for this setting: antagonist p.o. co-administered with hydrocodone A90 32 mg/kg p.o.

Values joined by “and” are separate entries in the source; they are usually repeats but may differ in a detail not shown here. Identical values can stand only once. Like-named read-outs stand apart in the source and are kept apart here.

Turning to 6β-naltrexamide, the “potency in blocking hydrocodone-induced antinociception, lower than that of 6β-naltrexol” value in [1] (mouse, in vivo) is given as “approximately 10 fold”. Moreover, the “time of peak effect of antinociception inhibition” value in [1] (mouse, in vivo) was 120 min and 120 to 180 min. Moreover, in [2] (animal experiments), the “peripheral over central antagonist selectivity compared to 6β-naltrexol” value is reported as “somewhat higher”. Further, the “Fold-Shift (antinociception ID50)/(GI transit ID50)” value in data set [2] (antagonist p.o./hydrocodone i.v.) was 14 and 14.3. In [2] (mice, oral administration, earlier experiments), the “selectivity in blocking peripheral over central opioid effects” value was “approximately twenty-fold”. For the same molecule, in [2], the “fold more potent peripherally than centrally” value was 14-25 fold. The “Half-life of active metabolites” value in [3] is on record as “Estimated >12 hours”. Further, the “Bioavailability for CNS (central) effects” value (“Bioavailability for CNS” below) in data set [3] (given orally) was roughly 25%. For the same molecule, in data set [3] (given orally), the “Equivalent dose (as compared to 1.5 mg to 5 mg 6β-naltrexol)” value lay in the range of 3 to 8 mg. In addition, the “potency, times less potent than 6β-naltrexol” value in [3] was 2-3 fold. Moreover, the “oral bioavailability (into the circulation), estimated” value in data set [4] (humans, estimated) is “approximately 25%”. Also, in data set [4] (species not stated), the oral bioavailability is reported as roughly 20%. Also, the Brain concentration in data set [5] (1 mg/kg i.p., 10 min after injection) was determined as 6 ± 1 ng/g; in data set [5] (setting [10]) it was 4 ± 1 ng/g; in data set [5] (setting [11]) it was 27 ± 6 ng/g; in [5] (setting [12]) it was 24 ± 1 ng/g. Besides, the Plasma concentration in data set [5] (1 mg/kg i.p., 10 min after injection, mean±SD, n=3) stood at 115 ± 2 ng/mL; in data set [5] (setting [10]), 18 ± 1 ng/mL; in [5] (setting [11]), 933 ± 221 ng/mL; in data set [5] (setting [12]), 166 ± 77 ng/mL. For the same molecule, the “change of levels at 60 min from those measured at 10 min” value in [5] was “had not changed”. Besides, the “blood half-life compared with 6β-naltrexol” value in data set [5] (mice, preliminary experiments) was “longer blood half-life than 6β-naltrexol”. In data set [6] (animal experiments), the “potency in blocking peripheral effects, lower than 6β-naltrexol on a mg/kg basis” value is on record as 2-3 fold. The “GI Transit ID50” value in [6] (setting [13]) is 0.173 mg/kg; in data set [6] (antagonist p.o./hydrocodone p.o., full dose-response curves not available), 1 to 2 mg/kg; in data set [6] (setting [14]) it was 1.92 mg/kg. Moreover, the “GI transit ID50, expected” value in data set [6] (i.v. administration) fell in the range of 0.1 to 0.2 mg/kg; in data set [6] (p.o. administration), 1 to 2 mg/kg. Besides, the induction of diarrhea result in [6] was “absent”.
Regarding `N[C@@H]1CC[C@@]2(O)[C@H]3Cc4ccc(O)c5c4[C@@]2(CCN3CC2CC2)[C@H]1O5` [6β-naltrexamine], the “Equivalent dose (as compared to 1.5 mg to 5 mg 6β-naltrexol)” value in data set [3] (given orally) fell in the range of 7.5 to 20 mg. The “potency, times less potent than 6β-naltrexol” value in data set [3] is recorded as 3-6 fold.
Take `COc1ccc2c3c1O[C@H]1[C@@H](O)C=C[C@H]4[C@@H](C2)N(C)CC[C@@]341` [Codeine]: the “Bioavailability for CNS” value in [7] is listed as “≈90%”.
In the case of `COc1ccc2c3c1O[C@H]1C(=O)CC[C@H]4[C@@H](C2)N(C)CC[C@]314` [Hydrocodone], the “Bioavailability for CNS” value in data set [7] is listed as “≧80%”.
With `CN1CC[C@]23CCCC[C@H]2[C@H]1Cc1ccc(O)cc13` [Levorphanol], the “Bioavailability for CNS” value in [7] is on record as 70%.
On to `C=CCN1CC[C@]23c4c5ccc(O)c4O[C@H]2C(=O)CC[C@@]3(O)[C@H]1C5` [Naloxone, naloxone, reference compound], for which the withdrawal symptoms entry in data set [8] (0.050 mg, methadone-dependent subjects) was “detectable withdrawal symptoms”. Also, in [8] (dose 0.05 mg), the “Diastolic BP, peak value” came out at 76.5 ± 3.8 mmHg; the “Heart Rate, peak value” stood at 63.5 ± 8.0 bpm; the “SOWS (total), peak value” worked out at 3.0 ± 2.8; the “VAS Any Drug Effect, peak value” came out at 15.4 ± 23.7. In addition, in data set [8] (dose 0.05 mg), the “VAS Bad Drug Effect, peak value” came to 13.5 ± 25.0; the “VAS Good Drug Effect, peak value” was 10.4 ± 18.9; the “VAS Opioid Withdrawal, peak value” is listed as 5.6 ± 8.2; the “VAS Sickness, peak value” is 4.6 ± 6.5. In addition, the “OOWS (total), peak value” in [8] (dose 0.05 mg, mean ± standard deviation) was 2.5 ± 0.6.
As for `O=C1CC[C@@]2(O)[C@H]3Cc4ccc(O)c5c4[C@@]2(CCN3CC2CC2)[C@H]1O5` [Naltrexone, naltrexone, reference compound], the “Antinociception ID50” value was 0.0411 mg/kg in [1] (antagonist i.v. pretreatment, hydrocodone A90 3.2 mg/kg i.v.); 0.914 mg/kg in [1] (setting [15]); 0.534 mg/kg in [1] (antagonist p.o. pretreatment, hydrocodone A90 3.2 mg/kg i.v.). For the same molecule, the “time of peak effect of antinociception inhibition” value in data set [1] (i.v. administration, hydrocodone 3.2 mg/kg i.v.) was 30 min; in data set [1] (p.o. administration, hydrocodone 3.2 mg/kg i.v.), 45 min. Besides, the “fold more potent peripherally than centrally” value in data set [2] is “nearly equipotent peripherally and centrally”. Besides, the “fraction converted to 6β-naltrexol” value in data set [9] is recorded as “approximately 43%”. In addition, the “change of levels at 60 min from those measured at 10 min” value in [5] is roughly 90%. The “detectability after administration of 6β-naltrexol” value in [5] (i.p. 6β-naltrexol) is reported as “no naltrexone was detectable”. Also, the concentration at 10 min in [5] (brain, intraperitoneal) turned out to be 69 ± 20 ng/g; in data set [5] (in vivo), 54 ± 16 ng/mL. Moreover, the concentration at 60 min came to 9 ± 1 ng/g in data set [5] (brain, intraperitoneal) and 4 ± 1 ng/mL in data set [5] (in vivo). Moreover, the entries for the “GI Transit ID50” value in data set [6] (setting [13]), in data set [6] (setting [15]) and in [6] (setting [14]) were 0.0456 mg/kg, 1.40 mg/kg and 0.194 mg/kg, respectively. In addition, in data set [6], the induction of diarrhea result is “strong induction of diarrhea was present”.
For the molecule `CN1CC[C@]23c4c5ccc(O)c4O[C@H]2C(=O)CC[C@@]3(O)[C@H]1C5` [Oxymorphone], the “Bioavailability for CNS” value in data set [7] is recorded as 10%.
For `CCOC(=O)C1(c2ccccc2)CCN(C)CC1` [Pethidine], the “Bioavailability for CNS” value in data set [7] is recorded as 50-60%.
In the case of `COc1cccc(C2(O)CCCCC2CN(C)C)c1` (stereo not shown) [Tramadol], the “Bioavailability for CNS” value in [7] is given as 68-72%.

The record behind these values is patent US8748448B2, “Combination analgesic employing opioid agonist and neutral antagonist” (AIKO Biotechnology, priority 2007, dated 2014).
